Assay results published in paper PMC5874590, “The Occurrence of Flavonoids and Related Compounds in Cedrus brevifolia A. Henry ex Elwes & A. Henry Needles. Inhibitory Potencies on Lipoxygenase, Linoleic Acid Lipid Peroxidation and Antioxidant Activity” (Plants, 2017).

target: T1, soybean lipoxygenase (LOX) (Glycine max, UniProt P08170); experiment: UV absorbance at […] nm; type: biochemical; settings: room temperature; product 13-hydroperoxylinoleate
T1 construct: gene LOX1.1; commercial native soybean enzyme (Sigma), catalogue number or type not given; 13-hydroperoxylinoleate product points to LOX-1
T1 sequence (P08170 1-839): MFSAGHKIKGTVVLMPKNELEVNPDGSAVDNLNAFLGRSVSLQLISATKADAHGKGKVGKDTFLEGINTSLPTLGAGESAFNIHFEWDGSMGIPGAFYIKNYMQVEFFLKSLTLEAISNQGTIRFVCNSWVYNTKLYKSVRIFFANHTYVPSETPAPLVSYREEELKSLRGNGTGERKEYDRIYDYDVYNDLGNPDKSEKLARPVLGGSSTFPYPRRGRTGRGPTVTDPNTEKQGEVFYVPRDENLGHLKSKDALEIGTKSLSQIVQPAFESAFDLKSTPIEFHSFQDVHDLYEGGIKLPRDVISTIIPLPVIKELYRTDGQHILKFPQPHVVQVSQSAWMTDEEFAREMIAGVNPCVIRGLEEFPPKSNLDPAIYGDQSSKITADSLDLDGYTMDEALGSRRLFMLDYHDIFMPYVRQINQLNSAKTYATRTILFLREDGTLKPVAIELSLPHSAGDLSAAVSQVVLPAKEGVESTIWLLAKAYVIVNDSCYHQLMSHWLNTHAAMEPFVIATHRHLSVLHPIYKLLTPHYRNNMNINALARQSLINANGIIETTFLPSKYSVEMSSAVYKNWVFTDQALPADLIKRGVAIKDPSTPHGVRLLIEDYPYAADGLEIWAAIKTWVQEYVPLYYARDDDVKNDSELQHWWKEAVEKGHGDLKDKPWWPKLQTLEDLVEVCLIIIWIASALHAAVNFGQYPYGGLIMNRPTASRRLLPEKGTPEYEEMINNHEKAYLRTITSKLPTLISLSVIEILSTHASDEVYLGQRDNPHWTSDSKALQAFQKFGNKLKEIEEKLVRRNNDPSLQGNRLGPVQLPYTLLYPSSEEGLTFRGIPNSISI

In the case of `CCCCC/C=C\C/C=C\CCCCCCCC(=O)O` [sodium linoleate], the “UV absorbance at 234 nm” value is reported as “The transformation of sodium linoleate to 13-hydroperoxylinoleate sodium was measured spectrophotometrically”.

target: T1, soybean lipoxygenase (LOX); experiment: UV absorbance at […] nm; type: biochemical; settings: 0.1 mM compound; sodium linoleate; room temperature

Compared with `O=C(O)/C=C/c1ccc(O[C@@H]2O[C@H](CO)[C@@H](O)[C@H](O)[C@H]2O)cc1` [compound 14, 4-O-β-D-glucopyranyl trans-p-coumaric acid], `O=C(O[C@@H]1O[C@H](CO)[C@@H](O)[C@H](O)[C@H]1O)c1ccccc1` [compound 5, benzoate glucoside] is lower in “% LOX ± SD Inhbt @ (0.1 mM)” value: 100 ± 2.5% for the first, 29 ± 1.1% for the second.

Compared with `O=C(/C=C/c1ccc(O)cc1)OC[C@H]1O[C@@H](Oc2c(-c3ccc(O)cc3)oc3cc(O)cc(O)c3c2=O)[C@H](O)[C@@H](O)[C@@H]1O` [compound 19, tiliroside], `C[C@@H]1O[C@@H](OC[C@H]2O[C@@H](Oc3c(-c4ccc(O)cc4)oc4cc(O)cc(O)c4c3=O)[C@H](O)[C@@H](O)[C@@H]2O)[C@H](O)[C@H](O)[C@H]1O` [compound 17, kaempferol-3-O-β-rutinoside] is higher in “% LOX ± SD Inhbt @ (0.1 mM)” value: 8 ± 0.3% for the first, 46 ± 1.0% for the second.

First: CC1=CC(=O)CC(C)(C)[C@@]1(O)/C=C/C(C)=C\CO[C@@H]1O[C@H](CO)[C@@H](O)[C@H](O)[C@H]1O [compound 16, abscisic alcohol glucoside]
Second: O=C(O)/C=C/c1ccc(O)cc1 [compound 13, p-coumaric acid]
The “% LOX ± SD Inhbt @ (0.1 mM)” value of the first is higher: 25±1.2% for the first, 18 ± 0.6% for the second.
